Laboratory results published in patent publication US20250268859A1, “OXAFURAMINE, (1R)-N-ETHYL-1-[(2R)-OXOLAN-2-YL]-2-[…], HYDROCHLORIDE AND DERIVATIVES THEREOF FOR TREATING ALZHEIMER'S DISEASE (AD), […] […], […] WITH LEWY BODIES (DLB), MIXED […], FRON[…] DEGENERATION (FTLD), AND PARKINSON'S DISEASE (PD)” (NLS Pharmaceutics AG, priority 2021, published 2025).

What was measured:
NET (h) = molecular target: T1, NET (h) (Homo sapiens, UniProt P23975); experiment: Radioligand binding panel, NET (h) (antagonist radioligand); conditions: % inhibition of control specific binding
T1 construct: Eurofins (contract panel)
Protocol: (§1) Oxafuramine is tested at 10^−5 M, calculated as a % inhibition of control specific binding of a radioactively labeled ligand specific for each target.
(§2) This binding profile panel was broadly defined with roughly an equal number of selective, central and peripheral therapeutically relevant targets, including native animal tissues, radioligands and specific enzymes involved in cell cycle regulation in accordance with Eurofins Standard Operating Procedure (www.eurofins.fr).
(§3) For radioligand binding experiments, the half maximal inhibitory concentration (IC50) and the half maximal effective concentration (EC50) values were determined (via computer software) by nonlinear regression analysis of the competition curves using Hill equation curve fitting. The inhibition constants (Ki) were calculated using the Cheng-Prusoff equation (Ki=IC50/(1+(L/KD)), where L is the concentration of radioligand in the assay, and KD is the affinity of the radioligand for the receptor.
(§4) The results are expressed as a % control specific binding ([measured specific binding/control specific binding]×100) and as a % inhibition of control specific binding (100−[(measured specific binding/control specific binding)×100]) obtained in the presence of the test compounds. […]

M1 (h) = molecular target: T2, M1 (h) (Homo sapiens, UniProt P11229); experiment: Radioligand binding panel, M1 (h) (antagonist radioligand); conditions: % inhibition of control specific binding
T2 construct: Eurofins (contract panel)
T2 sequence (P11229 1-460): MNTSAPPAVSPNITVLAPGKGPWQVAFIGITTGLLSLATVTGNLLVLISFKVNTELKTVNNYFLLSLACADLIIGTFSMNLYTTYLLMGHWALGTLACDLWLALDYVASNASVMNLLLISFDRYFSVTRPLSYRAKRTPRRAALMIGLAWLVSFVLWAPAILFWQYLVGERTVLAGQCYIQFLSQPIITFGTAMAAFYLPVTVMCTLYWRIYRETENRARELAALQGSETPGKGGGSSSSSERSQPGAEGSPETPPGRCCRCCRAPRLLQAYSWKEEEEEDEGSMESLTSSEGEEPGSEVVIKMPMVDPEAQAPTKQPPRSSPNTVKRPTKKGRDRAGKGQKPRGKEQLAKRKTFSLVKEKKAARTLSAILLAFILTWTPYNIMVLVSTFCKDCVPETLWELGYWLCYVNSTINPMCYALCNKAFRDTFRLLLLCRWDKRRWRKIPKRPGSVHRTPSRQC
Protocol: as §1, §2, §3, §4

Relaxin-3 (RXFP3) (h) = molecular target: T3, Relaxin-3 (RXFP3) (h) (Homo sapiens, UniProt Q9NSD7); experiment: Relaxin-3 (RXFP3) (h) (agonist radioligand); type: binding
T3 sequence (Q9NSD7 1-469): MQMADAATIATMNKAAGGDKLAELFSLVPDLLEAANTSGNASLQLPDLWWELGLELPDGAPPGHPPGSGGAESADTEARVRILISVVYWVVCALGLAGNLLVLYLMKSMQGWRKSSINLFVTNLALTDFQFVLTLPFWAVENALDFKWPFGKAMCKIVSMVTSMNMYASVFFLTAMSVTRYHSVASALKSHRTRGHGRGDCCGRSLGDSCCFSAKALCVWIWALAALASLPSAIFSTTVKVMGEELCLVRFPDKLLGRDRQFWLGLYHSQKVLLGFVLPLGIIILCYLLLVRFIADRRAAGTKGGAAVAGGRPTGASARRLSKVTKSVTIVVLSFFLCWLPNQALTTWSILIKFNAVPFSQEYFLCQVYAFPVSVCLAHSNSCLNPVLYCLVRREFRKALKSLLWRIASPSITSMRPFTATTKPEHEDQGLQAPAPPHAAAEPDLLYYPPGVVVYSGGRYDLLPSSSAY
Protocol: as §1
The results are expressed as a % control specific binding ([measured specific binding/control specific binding]×100) and as a % inhibition of control specific binding (100−[(measured specific binding/control specific binding)×100]) obtained in the presence of the test compounds.
Results showing an inhibition (or stimulation) lower than 25% are not considered significant and mostly attributable to variability of the signal around the control level. […]
• 1. cAMP Hunter cell lines were expanded from freezer stocks according to standard procedures. • 2. Cells were seeded in a total volume of 20 μL into white walled, 384-well microplates and incubated at 37° C. for the appropriate time prior to testing. • 3. cAMP modulation was determined using the DiscoverX HitHunter cAMP XS+ assay. […]
[formula] • 6. For Gi positive allosteric mode assays, percentage modulation is calculated using the following formula: % Modulation=100%×(1−(mean RLU of test sample−mean RLU of MAX control) /(mean RLU of EC20 control−mean RLU of MAX control)). • 7. […]

GABA-A1 = molecular target: T4, GABA-A1 (Homo sapiens, UniProt P14867+P47870); experiment: Radioligand binding panel, GABA-A1 (antagonist radioligand); conditions: 10^−5 M; % inhibition of control specific binding
T4 construct: Eurofins (contract panel)
Protocol: as §1, §2, §3, §4

T1 sequence (P23975 whole entry): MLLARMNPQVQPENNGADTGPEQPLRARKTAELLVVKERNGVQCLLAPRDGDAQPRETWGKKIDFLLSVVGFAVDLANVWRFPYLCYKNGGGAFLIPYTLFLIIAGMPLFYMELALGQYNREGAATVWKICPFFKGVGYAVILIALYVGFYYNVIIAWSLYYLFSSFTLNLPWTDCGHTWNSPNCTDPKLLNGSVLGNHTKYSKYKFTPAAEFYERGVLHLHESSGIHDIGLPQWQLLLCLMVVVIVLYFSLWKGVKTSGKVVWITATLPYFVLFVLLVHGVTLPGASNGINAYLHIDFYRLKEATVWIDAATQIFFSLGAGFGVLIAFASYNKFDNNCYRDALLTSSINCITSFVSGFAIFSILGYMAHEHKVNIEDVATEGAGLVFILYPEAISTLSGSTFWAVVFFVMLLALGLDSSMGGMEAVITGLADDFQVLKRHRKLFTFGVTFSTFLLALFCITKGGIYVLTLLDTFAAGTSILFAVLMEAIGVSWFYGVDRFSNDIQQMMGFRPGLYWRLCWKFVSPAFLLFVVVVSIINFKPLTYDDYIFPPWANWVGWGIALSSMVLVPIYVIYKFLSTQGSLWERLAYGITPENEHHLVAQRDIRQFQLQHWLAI
T4 sequence (P14867 28-456): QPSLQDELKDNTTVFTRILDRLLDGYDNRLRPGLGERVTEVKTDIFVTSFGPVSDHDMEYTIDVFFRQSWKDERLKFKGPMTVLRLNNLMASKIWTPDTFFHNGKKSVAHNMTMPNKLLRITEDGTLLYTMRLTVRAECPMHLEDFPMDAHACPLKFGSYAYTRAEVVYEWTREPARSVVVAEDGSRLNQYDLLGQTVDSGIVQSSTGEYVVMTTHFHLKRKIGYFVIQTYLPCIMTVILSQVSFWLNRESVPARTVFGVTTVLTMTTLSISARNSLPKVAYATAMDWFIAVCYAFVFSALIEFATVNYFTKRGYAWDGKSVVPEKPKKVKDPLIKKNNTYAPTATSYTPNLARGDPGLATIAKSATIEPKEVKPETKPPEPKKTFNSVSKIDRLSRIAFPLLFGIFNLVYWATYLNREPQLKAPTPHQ
T4 sequence (P47870 25-512 limits assumed): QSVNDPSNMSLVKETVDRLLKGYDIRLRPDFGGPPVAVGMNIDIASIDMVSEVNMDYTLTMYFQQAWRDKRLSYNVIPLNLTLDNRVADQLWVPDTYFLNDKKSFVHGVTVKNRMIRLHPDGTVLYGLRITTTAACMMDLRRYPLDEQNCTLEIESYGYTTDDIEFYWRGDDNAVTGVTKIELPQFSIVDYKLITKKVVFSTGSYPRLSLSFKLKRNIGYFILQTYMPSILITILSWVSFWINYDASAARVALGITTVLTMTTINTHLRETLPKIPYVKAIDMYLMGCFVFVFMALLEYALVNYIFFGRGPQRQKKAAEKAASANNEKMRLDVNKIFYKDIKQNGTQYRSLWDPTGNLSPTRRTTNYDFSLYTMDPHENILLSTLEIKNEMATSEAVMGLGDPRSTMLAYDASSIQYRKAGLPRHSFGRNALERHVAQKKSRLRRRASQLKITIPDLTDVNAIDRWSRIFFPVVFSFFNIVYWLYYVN
T4 sequence (P18507 40-475 partner): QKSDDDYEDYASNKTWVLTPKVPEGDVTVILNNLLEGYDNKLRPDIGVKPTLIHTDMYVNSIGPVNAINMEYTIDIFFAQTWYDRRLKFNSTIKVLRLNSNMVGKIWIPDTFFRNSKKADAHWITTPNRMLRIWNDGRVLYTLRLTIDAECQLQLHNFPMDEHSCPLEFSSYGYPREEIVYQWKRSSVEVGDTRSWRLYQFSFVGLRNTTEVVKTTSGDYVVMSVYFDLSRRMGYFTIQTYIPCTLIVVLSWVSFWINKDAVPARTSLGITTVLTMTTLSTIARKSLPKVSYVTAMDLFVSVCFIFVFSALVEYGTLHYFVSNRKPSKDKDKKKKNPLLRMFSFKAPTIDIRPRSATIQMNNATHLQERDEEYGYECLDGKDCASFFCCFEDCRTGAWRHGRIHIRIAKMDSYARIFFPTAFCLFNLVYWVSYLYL

SMILES: CCN[C@H](Cc1ccccc1)[C@H]1CCCO1 [Oxafuramine, (1R)—N-ethyl-1-[(2R)-oxolan-2-yl]-2-phenylethanamine]
- inhibition at 10 µM (NET (h); 10^−5 M): 53.3%
- % Inhibition at 10^−5M, NET (h) (antagonist radioligand) (NET (h)): appreciable potencies
- inhibition at 10 µM (M1 (h); 10^−5 M): ~30%
- % Inhibition at 10^−5M, M1 (h) (antagonist radioligand) (M1 (h)): 29.7%
- % Inhibition at 10^−5M, Relaxin-3 (RXFP3) (h) (agonist radioligand) (Relaxin-3 (RXFP3) (h)): weakly target
- inhibition at 10 µM (Relaxin-3 (RXFP3) (h); 10^−5 M): 16.5%
- inhibition at 10 µM (GABA-A1): 19.2%
